Data published in article PMC12410356 (International Journal for Parasitology: Drugs and Drug …, 2025).
Where two headings read alike, the source gives them in different places.

Assays:
[1] = system: E. multilocularis metacestode vesicles; experiment: Phosphoglucose isomerase (PGI) release assay (damage-marker release) on metacestode vesicles; format: cell-based, Echinococcus multilocularis; conditions: 10 μM; for PGI d5 (relative PGI release): 5 days; for PGI d12 (relative PGI release): 12 days
[2] = system: E. multilocularis metacestode vesicles; experiment: Metacestode vesicle viability assay (ATP, CellTiter-Glo); format: cell-based, Echinococcus multilocularis; conditions: Echinococcus multilocularis, 288 h
Experimental: Viability was assessed after 12 days using the same metacestode vesicles as for the PGI release assay. Triton X-100 was added to each well to a final concentration of 0.1 %. Subsequently the metacestode vesicles were broken mechanically and 50 μL of the supernatant was mixed with 50 μL of CellTiter-Glo® buffer (Promega, Dübendorf, Switzerland). Measurements were performed on a HIDEX Sense microplate reader.

[3] = system: E. multilocularis GL cells; experiment: Germinal layer cell viability assay (CellTiter-Glo); format: cell-based, Echinococcus multilocularis; conditions: for effect on GL cell viability (in words): 80 to 0.31 μM, 5 days; for IC50: Echinococcus multilocularis, 120 h, 5 days incubation, microaerobic, mean ± SD of three independent experiments
Experimental: The isolation of GL cells was conducted according to ([Kaethner et al., 2023]). Briefly, conditioned DMEM (cDMEM) was prepared prior to isolation. For the preparation of cDMEM, 1 × 10^6 RH cells and 10 × 10^6 RH cells incubated in DMEM supplemented with 10 % FBS, penicillin (100 U/mL), streptomycin (100 μg/mL) and tetracycline (5 μg/mL) for six or four days, respectively, at 37 °C under a humid, 5 % CO2 atmosphere. The supernatant of each was mixed 1:1 and sterile filtrated, resulting in cDMEM. Metacestode vesicles of at least 6 months of age were washed with PBS, incubated in distilled H2O for 2.5 min and subsequently mechanically disrupted. The resulting pellet was resuspended in 7 vol of pre-warmed 0.05 % Trypsin/0.02 % EDTA and incubated at 37 °C for 30 min. GL cells were extracted from the laminated layer by vigorous shaking followed by filtration through a 30 μm mesh (Sefar AG, Heiden, Switzerland) and separated from calcareous corpuscles by short centrifugation at 50×g for 30 s at RT. The isolated cells were centrifuged for 10 min at 600×g and RT and the pellet was resuspended in cDMEM. The cell suspension was diluted 1:100 in PBS to measure the OD600. An OD600 value of 0.1 of this dilution was defined as one arbitrary unit (AU) per μL of the undiluted cell suspension corresponding to 0.97 ± 0.11 μg of total protein for the GL cells as measured via Pierce™ bicinchoninic acid (BCA) Protein Assay Kit according to the manufacturer's protocol (Fisher Scientific AG, Reinach, Switzerland). 1′000 AU per 5 mL of cDMEM were cultured at 37 °C overnight under a humid nitrogen atmosphere. The next day, 2′000 AU of GL cells were combined and further cultured for 3 h at 37 °C under a humid nitrogen atmosphere before they were used for further experiments.
To assess effects of compounds on the cell viability of isolated E. multilocularis GL cells, the protocol was applied as previously described ([Kaethner et al., 2023]). In short, 15 AU of GL cells were distributed into each well of a black 384-well plate. Compounds dissolved in DMSO (alexidine, carbendazim, ESI-09, MMV1581545 and oxfendazole) were added to final concentrations ranging from 80 to 0.31 μM (1:2 serial dilution) and the cells were cultured for 5 days at 37 °C under a humid, microaerobic atmosphere (85 % N2, 10 % CO2, 5 % O2). DMSO with the respective concentration was used as a solvent control. Viability was measured using the CellTiter-Glo® kit. Luminescence was measured using a HIDEX Sense microplate reader. Measurements were done in quadruplicates and represented as relative viability of the DMSO controls. IC50 values were calculated in R applying the five parameter logistic model for three independent experiments ([Ritler et al., 2020]).

[4] = system: E. multilocularis metacestode vesicles; conditions: PGI release after five days, cited from earlier work
[5] = system: Reuber rat hepatoma (RH) cells; conditions: cited from earlier work
[6] = system: E. multilocularis GL cells; parameters: method as in Stadelmann et al., 2016; conditions: ref Stadelmann et al., 2016; cited from earlier work
[7] = system: Reuber rat hepatoma (RH) cells; experiment: Mammalian cell toxicity, resazurin assay; format: cell-based; conditions: for toxicity against mammalian cell line (in words): RH cells counter-screen; for IC50: 5 days incubation, mean ± SD
Experimental: Mammalian cell toxicity on RH cells was measured as described in [Rufener et al. (2018)] with few alterations. Briefly, confluent (50′000 cells/well) and pre-confluent (5′000 cells/well) were seeded into 96-well plates in DMEM supplemented with 10 % FBS, penicillin (100 U/mL), streptomycin (100 μg/mL) and tetracycline (5 μg/mL) and incubated at 37 °C under a humid, 5 % CO2 atmosphere for 24 h and 5 h respectively. Alexidine, ESI-09 and MMV1581545 were added to final concentrations ranging from 120 to 0.49 μM (1:3 serial dilution) to each well and then cells were incubated at 37 °C under a humid, 5 % CO2 atmosphere for 5 days. To measure viability, the medium was removed, 180 μL of PBS was added to the cells and resazurin was added to each well to a final concentration of 10 mg/L. The cells were then allowed to process the resazurin at RT for 1 h. Fluorescence was measured on a HIDEX Sense microplate reader. Measurements were performed in triplicates and IC50 values were calculated in R using the three parameter Weibull type 1 model for three independent experiments ([Ritler et al., 2020]).

[8] = system: E. multilocularis GL cells; experiment: Seahorse mito cell stress test, oxygen consumption rate; format: cell-based, Echinococcus multilocularis; conditions: titration in GL cells
Experimental: To measure mitochondrial respiration in E. multilocularis GL cells, Seahorse “mito cell stress test” was performed according to the manual for Seahorse XFp Extracellular Flux Analyzer (Agilent Technologies, Basel, Switzerland) with some adaptations ([Gu et al., 2021]; [Rufener et al., 2018]). Seahorse XFp 8-well plates were hydrated and incubated together with Seahorse XF calibrant solution at 37 °C in a non-CO2 incubator overnight the day before the actual experiment. […] Oligomycin was used at a final concentration of 1.5 μM. […] The experiment was repeated three times independently with two technical replicates.

[9] = system: HUVEC cell line; parameters: method as in Mamouei et al., 2018; conditions: at 15 μM; ref Mamouei et al., 2018; cited from earlier work
[10] = confirmation screen, triplicates, mean
[11] = overview screen, singlets, relative to 0.1 % Triton X-100, DMSO subtracted
[12] = confluent, ref Rufener et al., 2018, read-out: IC50 confluent RH cells
[13] = pre-confluent, ref Rufener et al., 2018, read-out: IC50 pre-confluent RH cells
[14] = confirmation screen, 10 μM, triplicates, mean, 12 days, read-out: Viability d12 (relative viability)
[15] = overview screen, 10 μM, singlets, 12 days, relative to DMSO control, read-out: Viability d12 (relative viability)
[16] = Rattus norvegicus, 120 h, confluent, read-out: IC50 confluent RH cells
[17] = Rattus norvegicus, 120 h, pre-confluent, read-out: IC50 pre-confluent RH cells

SMILES | PGI d5 (relative PGI release) [1, 10] [%] | PGI d12 (relative PGI release) [1, 10] [%] | PGI d5 (relative PGI release) [1, 11] [%] | PGI d12 (relative PGI release) [1, 11] [%] | effect on GL cell viability (in words) [3] | viability at 10 µM [2, 14] [%] | viability at 10 µM [2, 15] [%] | also measured
COC(=O)Nc1nc2ccccc2[nH]1 [carbendazim] | 5.10 | 24.66 | 6.336 | 74.6935 | did not reduce GL cell viability | – | – | viability at 10 µM ([2]; read-out: Viability d12 (relative viability), confirmation screen, 10 μM, triplicates, mean, 12 days): 36.4%; viability at 10 µM ([2]; read-out: Viability d12 (relative viability), overview screen, 10 μM, singlets, 12 days, relative to DMSO control): 4.59%; effect on GL cell viability (in words) ([3]; listed as Carbendazim): not able to decrease GL cell viability
CC(C)(C)[C@H]1CC[C@H](CC2=C(O)C(=O)c3ccccc3C2=O)CC1 [buparvaquone] | – | – | – | – | – | – | – | IC50 ([4]; ref Rufener et al., 2018): 2.87 ± 1.45 µM; IC50 [5, 12]: 17.4 ± 2.09 µM; IC50 [5, 13]: 8.47 ± 3.89 µM
O=C(Nc1cccc(C(F)(F)F)c1)c1cc(Cl)ccc1O [MMV665807] | – | – | – | – | – | – | – | IC50 ([4]; ref Stadelmann et al., 2016): 1.2 ± 1.6 µM; IC50 [6]: 0.6 ± 0.37 µM; IC50 ([5]; confluent, ref Stadelmann et al., 2016, read-out: IC50 confluent RH cells): 20.5 ± 0.13 µM; IC50 ([5]; pre-confluent, ref Stadelmann et al., 2016, read-out: IC50 pre-confluent RH cells): 4.8 ± 0.59 µM
Cc1cc(O)c2c(c1)C(=O)c1c(I)c(C)c(I)c(O)c1C2=O [MMV1581545] | 10.14 | 30.09 | 18.0887 | 27.8991 | highly effective | 19.1 | 16.4 | IC50 [3]: 7.89 ± 1.43 µM; toxicity against mammalian cell line (in words) [7]: moderate toxicity; IC50 [7, 16]: 21.3 ± 4.39 µM; IC50 [7, 17]: 13.8 ± 1.09 µM; IC50 ([7]; pre-confluent, read-out: IC50 pre-confluent RH cells): 14.7 ± 2.09 µM
N#CC(C#N)=NNc1ccc(OC(F)(F)F)cc1 [FCCP] | – | – | – | – | – | – | – | optimal (maximal) uncoupling concentration [8]: 0.4 µM
COC(=O)Nc1nc2ccc([S+]([O-])c3ccccc3)cc2[nH]1 (stereo not shown) [oxfendazole, reference compound] | 5.40 | 29.07 | -1.521 | 31.4286 | not able to decrease GL cell viability | 30.6 | 15.1 | effect on GL cell viability (in words) ([3]; listed as Oxfendazole): did not reduce GL cell viability
CCCCC(CC)CNC(=N)NC(=N)NCCCCCCNC(=N)NC(=N)NCC(CC)CCCC (stereo not shown) [alexidine, reference compound] | 32.36 | 76.1 ± 3.2 | 68.8052 | 92.491 | highly effective | 34.4 ± 0.9 | 4.93 | PGI d12 (relative PGI release) ([1]; confirmation screen, triplicates, mean, listed as MMV396785): 76.16%; IC50 [3]: 10.7 ± 1.13 µM; toxicity against mammalian cell line (in words) [7]: highly toxic; IC50 [7, 16]: 5.97 ± 4.89 µM; IC50 [7, 17]: 2.8 ± 1.33 µM; toxicity in the HUVEC cell line (in words) [9]: severe toxicity
Cc1[nH]c2cc(F)cc(F)c2c(=O)c1-c1ccc(Oc2ccc(OC(F)(F)F)cc2)cc1 [ELQ-400] | – | – | – | – | – | – | – | IC50 ([4]; ref Rufener et al., 2018): 0.02 ± 0.01 µM; IC50 [5, 12]: 2.07 ± 1.67 µM; IC50 [5, 13]: 0.25 ± 0.11 µM
